One data set has as its system normal human fibroblasts. Put plainly: Cytotoxicity assay (7-AAD viability, flow cytometry), normal fibroblasts. The format is cell-based. As to conditions: mean ± SE, at least three experiments in duplicate. The protocol:
(§1) Cells (Jurkat, K562, U937, HeLa, HEK293 and normal Fibroblasts) were purchased from Russian Cell Culture Collection (Institute of Cytology of the Russian Academy of Sciences, Saint Petersburg, Russia) and cultured according to standard mammalian tissue culture protocols and sterile technique. Human cell lines HEK293 and HeLa were obtained from the HPA Culture Collections (Salisbury, UK). All cell lines used in the study were tested and shown to be free of mycoplasma and viral contamination.
(§2) HEK293, HeLa cell lines and fibroblasts were cultured as monolayers and maintained in Dulbecco’s modified Eagle’s medium (DMEM, Gibco BRL, Waltham, MA, USA) supplemented with 10% foetal bovine serum and 1% penicillin-streptomycin solution at 37 °C in a humidified incubator under a 5% CO2 atmosphere.
(§3) Cells were maintained in RPMI 1640 (Jurkat, K562, U937) (Gibco, Thermo Fisher Scientific, Waltham, MA, USA) supplemented with 4 mM glutamine, 10% FBS (Sigma, Burlington, MA, USA) and 100 units/mL penicillin-streptomycin (Sigma). All types of cells were grown in an atmosphere of 5% CO2 at 37 °C. The cells were subcultures at 2–3 days intervals. Adherent cells (HEK293, HeLa, fibroblasts) were suspended using trypsin/EDTA and counted after they have reached 80% confluency. Cells were then seeded in 24 well plates at 5 × 10^4 cells per well and incubated overnight. Jurkat, K562, U937 cells were subcultured at 2 day intervals with a seeding density of 1 × 10^5 cells per 24 well plates in RPMI with 10% FBS.
Viability (Live/dead) assessment was performed by staining cells with 7-AAD (7-Aminoactinomycin D) (Biolegend, San Diego, CA, USA). […] After treatment, cells were harvested, washed 1–2 times with phosphate-buffered saline (PBS) and centrifuged at 400× g for 5 min. Cell pellets were resuspended in 200 μL of flow cytometry staining buffer (PBS without Ca^2+ and Mg^2+, 2.5% FBS) and stained with 5 μL of 7-AAD staining solutionfor 15 min at room temperature in the dark. Samples were acquired on NovoCyteTM 2000 FlowCytometry System (ACEA, San Diego, CA, USA) equipped with 488 nm argon laser. Detection of 7-AAD emission was collected through a 675/30 nm filter in FL4 channel.
Background: A flow cytometer gives signals particle by particle.

The subject of data set [1] is Jurkat (T-lymphoblastic leukemia) cells. Put plainly: cells. The format is cell-based. Particulars: for IC50: viable cells; for SI (selectivity towards Jurkat cells): SI = IC50 fibroblasts/IC50 Jurkat cells. The protocol: as §1, §3
(§4) Viability (Live/dead) assessment was performed by staining cells with 7-AAD (7-Aminoactinomycin D) (Biolegend, San Diego, CA, USA). Cells were treated of test compounds with six different concentrations (1, 5, 10, 15, 30 and 60 μM). After treatment, cells were harvested, washed 1–2 times with phosphate-buffered saline (PBS) and centrifuged at 400× g for 5 min. Cell pellets were resuspended in 200 μL of flow cytometry staining buffer (PBS without Ca^2+ and Mg^2+, 2.5% FBS) and stained with 5 μL of 7-AAD staining solutionfor 15 min at room temperature in the dark. Samples were acquired on NovoCyteTM 2000 FlowCytometry System (ACEA, San Diego, CA, USA) equipped with 488 nm argon laser. Detection of 7-AAD emission was collected through a 675/30 nm filter in FL4 channel.

Data set [2] has as its system HeLa (cervical cancer) cells. The data set can be described thus: Cytotoxicity assay (7-AAD viability, flow cytometry), HeLa. Format: cell-based, human. As to conditions: mean ± SE, at least three experiments in duplicate, viable cells. The procedure: as §1, §2, §3, §4
The subject of data set [3] is K562 (chronic myeloid leukemia) cells. Put plainly: Cytotoxicity assay (7-AAD viability, flow cytometry), K562. Particulars: viable cells. The format is cell-based, human. The protocol:
as §1, §3, §4

Data set [4] deals with U937 (histiocytic lymphoma) cells. Put plainly: Cytotoxicity assay (7-AAD viability, flow cytometry), U937. Format: cell-based, human. The protocol: as §1, §3, §4
In data set [5] the test system is HEK293 (embryonic kidney) cells. The data set can be described thus: Cytotoxicity assay (7-AAD viability, flow cytometry), HEK293. Format: cell-based, human. As to conditions: at least three experiments in duplicate, viable cells. The procedure: as §1, §2, §3, §4
[6] abbreviates: Homo sapiens, Jurkat, mean ± SE, at least three experiments in duplicate, read-out: IC50 Jurkat.
[7] abbreviates: Homo sapiens, K562, mean ± SE, at least three experiments in duplicate, read-out: IC50 K562.
Where [8] appears, read: Homo sapiens, U-937, mean ± SE, at least three experiments in duplicate; viable cells; read-out: IC50 U937.
Setting [9] is: Homo sapiens, HEK293, mean ± SE.
[10] abbreviates: read-out: IC50 U937; mean ± SE, at least three experiments in duplicate; viable cells.

We go through eleven molecules from paper PMC6278366, “Synthesis and Evaluation of Anticancer Activities of Novel C-28 Guanidine-Functionalized Triterpene Acid Derivatives” (Molecules, 2018).

Counter-ions that a name gives are not always drawn. Like-named read-outs stand apart in the source and are kept apart here.

Broadly, the IC50 is the concentration needed to halve the response being measured. Consider `CC(=O)O[C@H]1CC[C@@]2(C)C(CC[C@]3(C)C2CCC2C4C(C(C)C)CC[C@]4(C(=O)NCCCCNC(=N)N)CC[C@]23C)C1(C)C` (stereo partly drawn) [Compound 11b, 3β-N-(4-Butylgyanidine)-3-O-acetyl-lupane-28-amide hydrochloride], for which the IC50 worked out at 117 ± 0.38 µM in the data set with normal human fibroblasts (Homo sapiens, Fibroblast); 16 ± 0.18 µM in data set [1] (setting [6]); 106 ± 0.51 µM in data set [2] (Homo sapiens, HeLa); 55 ± 0.38 µM in data set [3] (setting [7]); 63 ± 0.29 µM in data set [4] (setting [8]); 98 ± 0.27 µM in data set [5] (setting [9]). In data set [1], the “increase in cytotoxic activity against Jurkat cells in comparison with dihydrobetulinic acid 2” value (from here on “increase in cytotoxic activity”) is listed as “approximately 3 fold”. Also, the “SI (selectivity towards Jurkat cells)” value in data set [1] turned out to be 7.3.

For the molecule `CC(=O)O[C@H]1CC[C@@]2(C)C(CC[C@]3(C)C2CCC2C4C(C(C)C)CC[C@]4(C(=O)NCCNC(=N)N)CC[C@]23C)C1(C)C` (stereo partly drawn) [Compound 10b, 3β-N-(2-Ethylgyanidine)-3-O-acetyl-lupane-28-amide hydrochloride], the 50% inhibitory concentration (IC50) is 354 ± 0.46 µM with normal human fibroblasts (Homo sapiens, Fibroblast); 67 ± 0.21 µM in data set [1] (setting [6]); 152 ± 0.49 µM in data set [2] (Homo sapiens, HeLa); 98 ± 0.35 µM in data set [3] (setting [7]); 82 ± 0.14 µM in data set [4] (setting [8]); 128 ± 0.35 µM in data set [5] (setting [9]).

For the molecule `CC(C)C1CC[C@]2(C(=O)NCCCCNC(=N)N)CC[C@]3(C)C(CCC4[C@@]5(C)CC[C@H](O)C(C)(C)C5CC[C@]43C)C12` (stereo partly drawn) [Compound 14, 3β-N-(4-Butylgyanidine)-3-hydroxy-lupane-28-amide], the IC50 in the data set on normal human fibroblasts (Homo sapiens, Fibroblast) was 96 ± 0.17 µM; in data set [1] (setting [6]), 17 ± 0.34 µM; in data set [2] (Homo sapiens, HeLa), 62 ± 0.24 µM; in data set [3] (setting [7]) it was 36 ± 0.42 µM; in data set [4] (setting [8]), 20 ± 0.12 µM; in data set [5] (setting [9]), 59 ± 0.21 µM. For the same molecule, the “increase in cytotoxic activity” value in data set [1] is “approximately 3 fold”. Also, the “SI (selectivity towards Jurkat cells)” value in data set [1] came out at 5.6.

As for `CC(=O)O[C@H]1CC[C@@]2(C)C(CC[C@]3(C)C2CC=C2C4CC(C)(C)CC[C@]4(C(=O)OCC(CO)(CO)NC(=N)N)CC[C@]23C)C1(C)C` (stereo partly drawn) [Compound 20b, 3β-[2-Guanidine-3-hydroxy-2-(hydroxymethyl)propyl]-3-O-acetyl-olean-12-en-28-oate trifluoroacetate], the IC50 in the data set with normal human fibroblasts (Homo sapiens, Fibroblast) came out at 49 ± 0.25 µM; in data set [1] (setting [6]), 6.7 ± 0.15 µM; in data set [2] (Homo sapiens, HeLa) it was 13 ± 0.41 µM; in data set [3] (setting [7]), 20 ± 0.14 µM; in data set [4] (setting [8]), 6.1 ± 0.43 µM; in data set [5] (setting [9]) it was 12 ± 0.23 µM.

Take `CC(=O)O[C@H]1CC[C@@]2(C)C(CC[C@]3(C)C2CCC2C4C(C(C)C)CC[C@]4(C(=O)NCCN(CCNC(=N)N)CCNC(=N)N)CC[C@]23C)C1(C)C` (single isomer, unassigned) [Compound 12b, 3β-N-[2-(N,N′-bis-Ethylgyanidine)-aminoethyl]-3-O-acetyl-lupane-28-amide dihydrochloride]: the IC50 in the data set with normal human fibroblasts came out at 106 ± 0.23 µM; in data set [1] (read-out: IC50 Jurkat, mean ± SE, at least three experiments in duplicate), 14 ± 0.37 µM; in data set [2], 72 ± 0.34 µM; in data set [3] (read-out: IC50 K562, mean ± SE, at least three experiments in duplicate) it was 52 ± 0.26 µM; in data set [4] (setting [10]), 13 ± 0.06 µM; in data set [5] (mean ± SE), 68 ± 0.29 µM.

Take `CC(=O)O[C@H]1CC[C@@]2(C)C(CC[C@]3(C)C2CCC2C4C(C(C)C)CC[C@]4(C(=O)NCCN(CCNC(=N)N)CCNC(=N)N)CC[C@]23C)C1(C)C` (single isomer, unassigned) [Compound 12a, 3β-N-[2-(N,N′-bis-Ethylgyanidine)-aminoethyl]-3-O-acetyl-lupane-28-amide trifluoroacetate]: the IC50 with normal human fibroblasts (Homo sapiens, Fibroblast) amounted to 149 ± 0.43 µM; in data set [1] (Homo sapiens, Jurkat, read-out: IC50 Jurkat, mean ± SE, at least three experiments in duplicate), 22 ± 0.21 µM; in data set [2] (Homo sapiens, HeLa), 101 ± 0.22 µM; in data set [3] (Homo sapiens, K562, read-out: IC50 K562, mean ± SE, at least three experiments in duplicate) it was 89 ± 0.18 µM; in data set [4] (setting [10]) it was 28 ± 0.25 µM; in data set [5] (setting [9]) it was 112 ± 0.19 µM.

Turning to `CC(C)C1CC[C@]2(C(=O)NCCCCNC(=N)N)CC[C@]3(C)C(CCC4[C@@]5(C)CCC(=O)C(C)(C)C5CC[C@]43C)C12` (stereo partly drawn) [Compound 9b, N-(4-Butylgyanidine)-3-oxolupane-28-amide dihydrochloride], the half-maximal inhibitory concentration (IC50) with normal human fibroblasts (Homo sapiens, Fibroblast) amounted to 179 ± 0.43 µM; in data set [1] (setting [6]), 21 ± 0.24 µM; in data set [2] (Homo sapiens, HeLa), 81 ± 0.19 µM; in data set [3] (setting [7]), 57 ± 0.36 µM; in data set [4] (setting [8]), 14 ± 0.16 µM; in data set [5] (setting [9]) it was 92 ± 0.34 µM. For the same molecule, the “increase in cytotoxic activity” value in data set [1] was “approximately 3 fold”. Besides, the “SI (selectivity towards Jurkat cells)” value in data set [1] came out at 8.5.

Turning to `CC1(C)CC[C@]2(C(=O)O)CC[C@]3(C)C(=CC[C@@H]4[C@@]5(C)CC[C@H](O)C(C)(C)[C@@H]5CC[C@]43C)[C@@H]2C1` [OA, oleanolic acid, reference compound], the half-maximal inhibitory concentration (IC50) came to 694 ± 0.17 µM in the data set with normal human fibroblasts (Homo sapiens, Fibroblast); 271 ± 0.19 µM in data set [1] (setting [6]); 258 ± 0.31 µM in data set [2] (Homo sapiens, HeLa); 235 ± 0.24 µM in data set [3] (setting [7]); 186 ± 0.18 µM in data set [4] (setting [8]); 247 ± 0.27 µM in data set [5] (setting [9]).

Consider `CC(=O)O[C@H]1CC[C@@]2(C)C(CC[C@]3(C)C2CC=C2C4[C@@H](C)[C@H](C)CC[C@]4(C(=O)OCC(CO)(CO)NC(=N)N)CC[C@]23C)C1(C)C` (single isomer, unassigned) [Compound 18b, 3β-[2-Guanidine-3-hydroxy-2-(hydroxymethyl)propyl]-3-O-acetyl-urs-12-en-28-oate trifluoroacetate], for which the concentration for half-maximal inhibition (IC50) is 47 ± 0.15 µM in the data set with normal human fibroblasts (Homo sapiens, Fibroblast); 6.8 ± 0.32 µM in data set [1] (setting [6]); 11 ± 0.27 µM in data set [2] (Homo sapiens, HeLa); 40 ± 0.29 µM in data set [3] (mean ± SE, at least three experiments in duplicate, read-out: IC50 K562); 2.1 ± 0.41 µM in data set [4] (mean ± SE, at least three experiments in duplicate; viable cells; read-out: IC50 U937); 13 ± 0.19 µM in data set [5] (setting [9]).

On to `C[C@H]1[C@H](C)CC[C@]2(C(=O)O)CC[C@]3(C)C(=CC[C@@H]4[C@@]5(C)CC[C@H](O)C(C)(C)[C@@H]5CC[C@]43C)[C@H]12` [UA, ursolic acid, reference compound], for which the half-inhibitory concentration (IC50) with normal human fibroblasts (Homo sapiens, Fibroblast) turned out to be 324 ± 0.16 µM; in data set [1] (setting [6]) it was 23 ± 0.34 µM; in data set [2] (Homo sapiens, HeLa), 88 ± 0.35 µM; in data set [3] (setting [7]), 68 ± 0.11 µM; in data set [4] (setting [8]) it was 17 ± 0.12 µM; in data set [5] (setting [9]), 96 ± 0.22 µM.

Turning to `CC(=O)O[C@H]1CC[C@@]2(C)C(CC[C@]3(C)C2CCC2C4C(C(C)C)CC[C@]4(C(=O)NCCCN4CCN(CCCNC(=N)N)CC4)CC[C@]23C)C1(C)C` (stereo partly drawn) [Compound 13a, 3β-N-{[3-(3-Propylguanidine)piperazinyl]propyl}-3-O-acetyl-lupane-28-amide trifluoroacetate], the half-maximal inhibitory concentration (IC50) in the data set with normal human fibroblasts (Homo sapiens, Fibroblast) amounted to 104 ± 0.26 µM; in data set [1] (setting [6]), 24 ± 0.27 µM; in data set [2] (Homo sapiens, HeLa), 79 ± 0.29 µM; in data set [3] (setting [7]), 11 ± 0.33 µM; in data set [4] (setting [8]), 18 ± 0.21 µM; in data set [5] (setting [9]), 74 ± 0.15 µM.
